Test results from patent US8961958B2, “High concentration self-microemulsifying coenzyme Q10 preparations for nutritional use” (Bioavailability, Inc, priority 2004, dated 2015).

Tests used:
[1] = Solubility of CoQ10 in solvents; assay type: physicochemical
Method: The speed at which the CoQ10 dissolves into the solvent is primarily a function of the temperature of the solvent and its viscosity, but the base composition that is prepared at a temperature above […] will have the same properties as a base prepared at a temperature of 37° C. If CoQ10 crystals are added to solvents hot enough to melt CoQ10 (48° C. to about 52° C.) the molten CoQ10 mixes and dissolves almost immediately. On the other hand, under room temperature conditions, several hours of stirring may be required to obtain even a 5% CoQ10 concentration in a highly viscous solvent such as a triglyceride oil. By contrast, a low viscosity solvent, such as sweet orange oil can dissolve a 30% CoQ10 concentration under room temperature almost immediately. The fact that CoQ10 melts at about 48° C. to about 52° C. and then is soluble at high concentrations in a wide range of only modestly hydrophobic media, such as ethanol, is distracting to the design of high concentration CoQ10 solutions at room temperature or body temperature. Many different high concentration solutions of CoQ10 which form readily at the high temperatures of molten CoQ10 are not stable, or are meta-stable, at body temperature.
Primary considerations in the choice of an acceptable water-immiscible solvent are somewhat similar to those in choosing an acceptable surfactant. In addition to the basic requirements of bio-compatibility, low toxicity and good taste and odor, the solvent must have a melting point at or about the temperature of a human and most other mammals (about 37° C.), and be able to dissolve a substantial amount of CoQ10 below body temperature. […] Once such a solvent is identified, the saturation capacity of the solvent with CoQ10 at body temperature is then determined, and a reduction in the concentration of CoQ10 is made to ensure that mixture of the CoQ10 and solvent, along with the more hydrophilic surfactant, will not cause CoQ10 precipitation. […]

[2] = cited from earlier work

- thermodynamically stable concentration of CoQ10 in sweet orange oil ([1]; sweet orange oil, body temperature): up to 55%
- CoQ10 concentration dissolved in sweet orange oil ([1]; sweet orange oil, room temperature, almost immediately): 30%
- CoQ10 dissolvable in triglyceride oils ([1]; triglyceride oils, body temperature): ≤ 5 % by weight
SMILES: COC1=C(OC)C(=O)C(C/C=C(\C)CC/C=C(\C)CC/C=C(\C)CC/C=C(\C)CC/C=C(\C)CC/C=C(\C)CC/C=C(\C)CC/C=C(\C)CC/C=C(\C)CCC=C(C)C)=C(C)C1=O [CoQ10, coenzyme Q10]
- solubility of CoQ10 in water [2]: nearly insoluble in water
